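Five compound concentrations were applied to cells in 96-well plates for 48 hours; endpoints were derived by simple linear interpolation of the resulting dose-response curve. TGI marks complete inhibition of growth.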
Legend:
Assay in all cases: NCI tumour cell line growth inhibition, 48 h
BT-549 breast = system: BT-549 breast
OVCAR-3 ovarian = system: OVCAR-3 ovarian
SN12C renal = system: SN12C renal
MDA-MB-231 breast = system: MDA-MB-231 breast
SK-MEL-5 melanoma = system: SK-MEL-5 melanoma
NCI/ADR-RES ovarian = system: NCI/ADR-RES ovarian
K-562 leukemia = system: K-562 leukemia
OVCAR-8 ovarian = system: OVCAR-8 ovarian
MOLT-4 leukemia = system: MOLT-4 leukemia
M14 melanoma = system: M14 melanoma
PC-3 prostate = system: PC-3 prostate
DU-145 prostate = system: DU-145 prostate
HT29 colon = system: HT29 colon
MDA-MB-435 = system: MDA-MB-435
UACC-257 melanoma = system: UACC-257 melanoma
A498 renal = system: A498 renal
NCI-H522 lung = system: NCI-H522 lung
HCC-2998 colon = system: HCC-2998 colon
ACHN renal = system: ACHN renal
KM12 colon = system: KM12 colon
HS 578T breast = system: HS 578T breast
786-0 renal = system: 786-0 renal
U251 CNS = system: U251 CNS
TK-10 renal = system: TK-10 renal
SK-MEL-2 melanoma = system: SK-MEL-2 melanoma
RPMI-8226 leukemia = system: RPMI-8226 leukemia
SNB-75 CNS = system: SNB-75 CNS
MCF7 breast = system: MCF7 breast
UO-31 renal = system: UO-31 renal
HL-60(TB) leukemia = system: HL-60(TB) leukemia
SK-OV-3 ovarian = system: SK-OV-3 ovarian
COLO 205 colon = system: COLO 205 colon
EKVX NSCLC = system: EKVX NSCLC
LOX IMVI melanoma = system: LOX IMVI melanoma
SNB-19 CNS = system: SNB-19 CNS
HOP-62 NSCLC = system: HOP-62 NSCLC
MALME-3M melanoma = system: MALME-3M melanoma
HCT-15 colon = system: HCT-15 colon
HCT-116 colon = system: HCT-116 colon
NCI-H226 lung = system: NCI-H226 lung
HOP-92 NSCLC = system: HOP-92 NSCLC
NCI-H23 lung = system: NCI-H23 lung
SW-620 colon = system: SW-620 colon
MDA-N = system: MDA-N
SR leukemia = system: SR leukemia
OVCAR-4 ovarian = system: OVCAR-4 ovarian
SF-268 CNS = system: SF-268 CNS
A549 NSCLC = system: A549 NSCLC
SF-295 CNS = system: SF-295 CNS
RXF 393 renal = system: RXF 393 renal
CAKI-1 renal = system: CAKI-1 renal
CCRF-CEM leukemia = system: CCRF-CEM leukemia
IGROV1 ovarian = system: IGROV1 ovarian
SK-MEL-28 melanoma = system: SK-MEL-28 melanoma
T-47D breast = system: T-47D breast
SF-539 CNS = system: SF-539 CNS
UACC-62 melanoma = system: UACC-62 melanoma
OVCAR-5 ovarian = system: OVCAR-5 ovarian
NCI-H460 lung = system: NCI-H460 lung

Measured: TGI

CC(=O)N(CCc1ccccc1)C(C)(C#N)c1ccccc1 (configuration not stated)
not listed: NCI-H460 lung
> 100 µM: all other assays above

CC(=O)C(CN1CCOCC1)C(c1ccccc1)c1c(O)c2ccccc2oc1=O (configuration not stated)
96.4 µM: RPMI-8226 leukemia
> 100 µM: all other assays above

— PubChem BioAssay (NCI)
